Data from article PMC11996864, “A small-molecule inhibitor of BCL10-MALT1 interaction abrogates progression of diffuse large B cell lymphoma” (The Journal of Clinical Investigation, 2025).
Several values for one entry are separate records, joined by “and”; a condition that tells them apart may be missing. Equal values may be shown once. Entries after “also recorded” stand apart in the source; their conditions may differ.

Assays:
[1] = system: OCI-Ly3 cells; assay: cells; parameters: species or system TMD8 or OCI-Ly3; Inhibition of spontaneous IL-6 secretion from ABC-DLBCL cells, human IL-6 ELISA of supernatants; settings: Homo sapiens, OCI-Ly3, 20 h; IL-6 secretion; read-out: IC50 (µM) IL-6 inhibition
Experimental: (§1) Cytokine ELISAs. Cytokines in cell culture supernatants were measured 20-24h after treatment with 0, 0.01, 0.03, 0.1, 0.3, 1, or 3 µM of compounds using the following ELISA kits according to the manufacturer’s instructions: Human IL-2 ELISA (BioLegend Cat# 431804), Human IL-6 ELISA (BioLegend Cat# 430504), and Human IL-10 ELISA (BioLegend Cat# 430604). TMD8 and OCI-Ly3 cells were treated with specific doses of compounds in serum-free media for 20 hours. Jurkat T cells were pretreated with specific doses of compounds for 8 hours in serum-free media, then stimulated with PMA/ionomycin for 16 hours prior to the collection of supernatants. Mouse splenocytes were isolated from spleens of C57/BL6 mice by passing spleens through a 70 micron filter followed by red blood cell lysis using ACK lysing buffer (Quality Biologics, Cat# 118-156-101). […] Supernatant was collected at 24 hours and mouse IL-2 levels were analyzed via ELISA (R&D Systems, Cat# DY402-05). IL-6 and IL-10 are NF-κB–induced cytokines that promote the proliferation and survival of malignant B cells through both autocrine and paracrine mechanisms ([44]), and are negative prognostic factors in ABC-DLBCL ([45], [46]). ABC-DLBCL cell lines spontaneously secrete substantial levels of IL-6 and IL-10, whereas GCB-DLBCL cell lines express only a negligible amount of these cytokines ([24]). […] The IC50 for inhibition of cytokine secretion by each compound in each cell line is reported in Supplemental Table 1.  Figure 4 M1i-124 and M1i-124d1 inhibit MALT1 protease and scaffolding functions, and MALT1-dependent cytokine secretion, in ABC-DLBCL cells. (A and B) Effect of 1 μM compound pretreatment on constitutive RelB cleavage (A) and IκB phosphorylation (B) within TMD8 cells. Representative Western blots are shown along with quantification (mean ± SEM; n = 2). (C) IL6 and IL10 mRNA levels in TMD8 cells treated with 1 μM M1i-124 or M1i-124d1 (mean ± SEM; n = 6). […] Statistical analyses were performed using 1-way ANOVA and Dunnett’s multiple-comparison test. **P < 0.01, ***P < 0.001, ****P < 0.0001.

[2] = system: TMD8 cells; assay: cells; parameters: species or system TMD8 or OCI-Ly3; Inhibition of spontaneous IL-6 secretion from ABC-DLBCL cells, human IL-6 ELISA of supernatants; settings: Homo sapiens, TMD8, 20 h; IL-6 secretion; read-out: IC50 (µM) IL-6 inhibition
Experimental: as §1

[3] = system: OCI-Ly3 cells; assay: IL-6 and IL-10 secretion, cytokine ELISA; format: cell-based, human; settings: for IL-6 and IL-10 secretion: OCI-Ly3, result in words; for IL-6 protein (normalized) / IL-10 protein (normalized): OCI-Ly3 cells, individual replicates n=3
Experimental: (§2) Cytokine ELISAs. Cytokines in cell culture supernatants were measured 20-24h after treatment with 0, 0.01, 0.03, 0.1, 0.3, 1, or 3 µM of compounds using the following ELISA kits according to the manufacturer’s instructions: Human IL-2 ELISA (BioLegend Cat# 431804), Human IL-6 ELISA (BioLegend Cat# 430504), and Human IL-10 ELISA (BioLegend Cat# 430604). […]

[4] = system: TMD8 cells; assay: IL-6 and IL-10 secretion, cytokine ELISA; format: cell-based, human; settings: for IL-6 and IL-10 secretion: TMD8, result in words
Experimental: as §2

[5] = system: TMD8 cells; assay: CellTiter-Glo ATP viability; format: cell-based, human
Experimental: Cell proliferation, viability, and apoptosis assays. […]
Fluorescent Intensity (MFI) was analyzed by FlowJo (version 10.8.0, BD). CellTiter-glo luminescence assay (Promega, Cat# G7570) was used to quantify ATP levels as a surrogate marker of metabolic viability in DLBCL cells treated with compounds for 6-8 days. Annexin V Alexa 488 (ThermoFisher Scientific, Cat# A13201) and SYTOX Blue Dead Cell (ThermoFisher Scientific, Cat# S34857) stains were used to detect apoptosis in DLBCL cells after treatment with 1 µM compounds for 8 days in TMD8 and OCI-Ly1 and for 5 days in OCI-Ly3 cells, then analyzed with flow cytometry. The percentages of cells in early and late apoptosis were combined for quantification. For CellTrace Violet, CellTiter-glo, and Annexin V apoptosis assays, cell were cultured in media with 50% of the usual serum. […]

[6] = target: T1, full-length MALT1 (Homo sapiens, UniProt Q9UDY8); assay: SPR binding of M1i-124 to immobilized full-length MALT1; settings: steady-state affinity model; read-out: equilibrium dissociation constant (KD)
T1 construct: full-length GST-tagged MALT1 (Novus, catalog H00010892-P01) protein; purchased Novus H00010892-P01
T1 sequence (Q9UDY8 1-813 isoform Q9UDY8-2): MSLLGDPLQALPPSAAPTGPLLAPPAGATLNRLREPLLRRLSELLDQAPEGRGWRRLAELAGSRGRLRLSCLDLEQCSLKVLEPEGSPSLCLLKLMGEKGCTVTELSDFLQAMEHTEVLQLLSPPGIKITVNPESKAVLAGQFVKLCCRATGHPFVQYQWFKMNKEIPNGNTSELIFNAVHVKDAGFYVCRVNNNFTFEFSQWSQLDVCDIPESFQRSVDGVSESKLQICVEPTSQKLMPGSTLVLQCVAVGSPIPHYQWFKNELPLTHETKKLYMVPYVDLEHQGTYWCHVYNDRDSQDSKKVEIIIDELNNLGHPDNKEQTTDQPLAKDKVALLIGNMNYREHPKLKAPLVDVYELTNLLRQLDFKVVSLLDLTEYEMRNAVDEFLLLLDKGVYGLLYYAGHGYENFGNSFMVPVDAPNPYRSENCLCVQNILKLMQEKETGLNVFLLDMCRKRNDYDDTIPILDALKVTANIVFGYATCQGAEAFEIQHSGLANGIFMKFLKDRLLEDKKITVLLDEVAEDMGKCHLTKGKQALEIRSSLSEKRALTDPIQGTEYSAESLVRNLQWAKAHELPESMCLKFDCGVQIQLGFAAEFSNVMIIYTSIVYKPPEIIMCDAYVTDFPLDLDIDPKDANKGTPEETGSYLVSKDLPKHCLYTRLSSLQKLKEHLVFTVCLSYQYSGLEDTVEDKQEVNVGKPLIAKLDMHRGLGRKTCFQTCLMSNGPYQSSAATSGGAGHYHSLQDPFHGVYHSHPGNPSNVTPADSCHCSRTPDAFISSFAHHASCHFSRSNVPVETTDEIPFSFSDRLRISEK
Experimental: Surface plasmon resonance (SPR) experiments were performed on a Biacore 2000 system (Cytiva). Full-length GST-BCL10 (Abnova, catalog H00008915-P01) was immobilized onto a gold sensor chip surface, and analyte solution containing MALT1(DD+Ig1-2), MALT1(DD), or MALT1(Ig1-2) purified protein was injected over the surface through a series of flow cells (see Supplemental Methods for details on protein purification). The binding kinetic parameters were obtained using the Langmuir model for global fitting with 1:1 binding ratio where one ligand molecule interacts with one analyte molecule. The equilibrium dissociation constant (KD) of M1i-124 to full-length GST-tagged MALT1 (Novus, catalog H00010892-P01) protein was determined by Creative Biolabs using Biacore T200. Full-length MALT1 protein was immobilized onto CM5 sensor chip surface, and M1i-124 was injected at concentrations of 0, 12.5, 25, 50, 100, and 200 μM. The steady-state affinity model was used to determine the KD.

COc1ccc(CNS(=O)(=O)c2ccc(Cc3ccc(S(=O)(=O)NCc4ccc(OC)cc4)cc3)cc2)cc1 [M1i-124d1]
IC50 [1]: > 3 µM
IC50 [2]: 0.8 µM
IL-6 and IL-10 secretion [3]: dose-dependent reduction of IL-6 and IL-10 secretion
IL-6 protein (normalized) ([3]; dose 0.01 µM): 99.5607 and 97.9207 and 112.031
IL-10 protein (normalized) ([3]; dose 0.01 µM): 79.7769 and 92.2916 and 96.3976
IL-6 protein (normalized) ([3]; dose 0.03 µM): 98.1802 and 88.2708 and 79.406
IL-10 protein (normalized) ([3]; dose 0.03 µM): 92.2982 and 70.1649 and 75.2443
IL-6 protein (normalized) ([3]; dose 0.1 µM): 82.137 and 88.0559 and 90.8694
IL-10 protein (normalized) ([3]; dose 0.1 µM): 78.4383 and 79.1463 and 60.8949
IL-6 protein (normalized) ([3]; dose 0.3 µM): 78.0338 and 77.6618 and 76.9556
IL-10 protein (normalized) ([3]; dose 0.3 µM): 68.3626 and 76.063 and 76.9269
IL-6 protein (normalized) ([3]; dose 1 µM): 82.5608 and 76.3464 and 79.062
IL-10 protein (normalized) ([3]; dose 1 µM): 58.0215 and 44.447 and 56.2881
IL-6 protein (normalized) ([3]; dose 3 µM): 67.8445 and 70.7121 and 79.6228
IL-10 protein (normalized) ([3]; dose 3 µM): 43.78 and 51.6743 and 38.3491
IL-6 protein (normalized) ([4]; TMD8, Dose (µM) 0.01): 93.5197 and 93.7514 and 94.5387
IL-10 protein (normalized) ([4]; TMD8, Dose (µM) 0.01): 69.769 and 89.382 and 96.8917
IL-6 protein (normalized) ([4]; TMD8, Dose (µM) 0.03): 91.3047 and 88.3022 and 85.704
IL-10 protein (normalized) ([4]; TMD8, Dose (µM) 0.03): 62.2564 and 54.1514 and 73.6549
IL-6 protein (normalized) ([4]; TMD8, Dose (µM) 0.1): 77.5452 and 70.6916 and 62.4629
IL-10 protein (normalized) ([4]; TMD8, Dose (µM) 0.1): 60.4815 and 45.5606 and 38.3417
IL-6 protein (normalized) ([4]; TMD8, Dose (µM) 0.3): 55.6968 and 55.4486 and 52.1775
IL-10 protein (normalized) ([4]; TMD8, Dose (µM) 0.3): 40.1613 and 36.3491 and 28.9939
IL-6 protein (normalized) ([4]; TMD8, Dose (µM) 1): 45.5895 and 45.5473 and 39.027
IL-10 protein (normalized) ([4]; TMD8, Dose (µM) 1): 29.9544 and 27.9974 and 29.4587
IL-6 protein (normalized) ([4]; TMD8, Dose (µM) 3): 41.6763 and 36.3341 and 29.5994
IL-10 protein (normalized) ([4]; TMD8, Dose (µM) 3): 27.5683 and 24.6599 and 35.0793
IL-6 and IL-10 secretion [4]: dose-dependent reduction of IL-6 and IL-10 secretion

O=S(=O)(NCc1ccc2c(c1)OCO2)c1ccc(Cc2ccc(S(=O)(=O)NCc3ccc4c(c3)OCO4)cc2)cc1 [M1i-124]
IC50 [1]: 0.8 µM
IC50 [2]: 1.3 µM
IC50 ([5]; Homo sapiens, TMD8 cells, read-out: 50% cytotoxic concentration): ~200 nM
viability of TMD8 cells ([5]; result in words): loss of cell viability; also recorded: dose-dependent decrease in viability
IL-6 and IL-10 secretion [3]: dose-dependent reduction of IL-6 and IL-10 secretion
IL-6 protein (normalized) ([3]; dose 0.01 µM): 107.046 and 97.7137 and 87.0295
IL-10 protein (normalized) ([3]; dose 0.01 µM): 103.16 and 104.534 and 97.5052
IL-6 protein (normalized) ([3]; dose 0.03 µM): 96.5093 and 109.876 and 83.6147
IL-10 protein (normalized) ([3]; dose 0.03 µM): 91.281 and 93.6459 and 78.8249
IL-6 protein (normalized) ([3]; dose 0.1 µM): 75.4106 and 89.2481 and 95.3244
IL-10 protein (normalized) ([3]; dose 0.1 µM): 87.8156 and 90.4046 and 87.8267
IL-6 protein (normalized) ([3]; dose 0.3 µM): 61.7285 and 64.3367 and 64.4209
IL-10 protein (normalized) ([3]; dose 0.3 µM): 53.7308 and 68.0081 and 65.3126
IL-6 protein (normalized) ([3]; dose 1 µM): 45.5755 and 29.5412 and 43.2472
IL-10 protein (normalized) ([3]; dose 1 µM): 42.8574 and 34.5822 and 37.4365
IL-6 protein (normalized) ([3]; dose 3 µM): 32.8587 and 36.4245 and 37.9702
IL-10 protein (normalized) ([3]; dose 3 µM): 27.1129 and 25.9246 and 27.6249
IC50 ([4]; Homo sapiens, cell-based assays measuring functional MALT1 inhibition, span over cytokines and cell lines (TMD8, OCI-Ly3; Supplemental Table 1)): 500 to 1300 nM
IL-6 protein (normalized) ([4]; TMD8, Dose (µM) 0.01): 95.9364 and 102.213 and 93.8323
IL-10 protein (normalized) ([4]; TMD8, Dose (µM) 0.01): 92.0215 and 104.795 and 93.5401
IL-6 protein (normalized) ([4]; TMD8, Dose (µM) 0.03): 87.0698 and 93.9663 and 88.6054
IL-10 protein (normalized) ([4]; TMD8, Dose (µM) 0.03): 92.6437 and 90.5031 and 81.0478
IL-6 protein (normalized) ([4]; TMD8, Dose (µM) 0.1): 69.9434 and 74.7992 and 78.3531
IL-10 protein (normalized) ([4]; TMD8, Dose (µM) 0.1): 68.4368 and 67.4137 and 68.4567
IL-6 protein (normalized) ([4]; TMD8, Dose (µM) 0.3): 69.7251 and 64.7937 and 50.8437
IL-10 protein (normalized) ([4]; TMD8, Dose (µM) 0.3): 56.1427 and 56.6527 and 44.4473
IL-6 protein (normalized) ([4]; TMD8, Dose (µM) 1): 36.3116 and 40.2609 and 34.3135
IL-10 protein (normalized) ([4]; TMD8, Dose (µM) 1): 37.7839 and 38.0405 and 34.7537
IL-6 protein (normalized) ([4]; TMD8, Dose (µM) 3): 26.8371 and 27.7392 and 25.9151
IL-10 protein (normalized) ([4]; TMD8, Dose (µM) 3): 23.1611 and 23.3192 and 20.6767
IL-6 and IL-10 secretion [4]: dose-dependent reduction of IL-6 and IL-10 secretion
Kd [6]: 296000 nM
